In PMC6888133, “Identification and Characterization of a Fatty Acid- and Retinoid-Binding Protein Gene (Ar-far-1) from the Chrysanthemum Foliar Nematode, Aphelenchoides ritzemabosi” (International Journal of Molecular Sciences, 2019) one finds Kd data, which are given here for two molecules.

SMILES strings stand for the structures.

This test deals with T1, rAr-FAR-1 (Ar-FAR-1) (Aphelenchoides ritzemabosi, UniProt A0A2D0WIZ9).
T1 construct: full-length 181 aa ORF with signal peptide (18 aa, cleavage Ala18/Glu19); E. coli BL21(DE3)
T1 sequence (A0A2D0WIZ9 1-181): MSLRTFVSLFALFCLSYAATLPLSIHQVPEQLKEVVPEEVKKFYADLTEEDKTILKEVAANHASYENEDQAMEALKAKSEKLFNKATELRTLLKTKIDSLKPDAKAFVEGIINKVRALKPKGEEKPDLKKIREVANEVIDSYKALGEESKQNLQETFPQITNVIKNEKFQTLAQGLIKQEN
In words: fluorescence titration. The class given is binding.

As a reminder, the Kd is the constant that tells how readily two partners part at equilibrium. As to `CC1=C(/C=C/C(C)=C/C=C/C(C)=C/CO)C(C)(C)CCC1` [retinol], the Kd was 67.9 nM.
The molecule `CN(C)c1cccc2c(S(=O)(=O)NCCCCCCCCCCC(=O)O)cccc12` [DAUDA, 11-(5-dimethylaminonaphthalene-1-sulfonylamino) undecanoic acid] showed a Kd of 40.5 nM.
